Test results published in ChEMBL document CHEMBL1201862, “PubChem BioAssay data set” (2004).
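These data come from cells grown in 96-well plates and exposed to compound for 48 hours at five concentrations. Abbreviation: GI50, concentration required for 50% inhibition of growth.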 Activity calls are given as the source filed them. Cut-off read from the data, not from the text of the source: active = GI50 up to about 1.1 µM and inactive = higher.

Assays:
Test in all cases: NCI tumour cell line growth inhibition, 48 h
MDA-N = tested on: MDA-N
RXF 393 = tested on: RXF 393
MCF7 = tested on: MCF7
SR = tested on: SR
UACC-257 = tested on: UACC-257
SK-MEL-28 = tested on: SK-MEL-28
ACHN = tested on: ACHN
PC-3 = tested on: PC-3
K562 = tested on: K562
HCC 2998 = tested on: HCC 2998
NCI/ADR-RES = tested on: NCI/ADR-RES
MDA-MB-435 = tested on: MDA-MB-435
MDA-MB-231 = tested on: MDA-MB-231
CAKI-1 = tested on: CAKI-1
SK-MEL-5 = tested on: SK-MEL-5
M14 = tested on: M14
HCT-116 = tested on: HCT-116
SK-MEL-2 = tested on: SK-MEL-2
A498 = tested on: A498

Measured: GI50

Cn1c2c(c3ccccc31)CC1c3c(c4ccccc4n3C)CC21 (stereo not given)
inactive: MDA-N > 100 µM | RXF 393 > 100 µM | MCF7 > 100 µM | SR > 100 µM | UACC-257 > 100 µM | SK-MEL-28 > 100 µM | ACHN > 100 µM | PC-3 > 100 µM | K562 > 100 µM | HCC 2998 > 100 µM | NCI/ADR-RES > 100 µM | MDA-MB-435 > 100 µM | MDA-MB-231 > 100 µM | CAKI-1 > 100 µM | SK-MEL-5 > 100 µM | M14 > 100 µM

O=[N+]([O-])c1cc(-[n+]2cc([O-])on2)ccc1Cl
inactive: MDA-N 14.9 µM | RXF 393 14.8 µM | MCF7 19.4 µM | SR 29.9 µM | UACC-257 13.8 µM | HCT-116 16.1 µM | SK-MEL-28 16.1 µM | ACHN 16 µM | PC-3 > 100 µM | K562 42.4 µM | SK-MEL-2 21.5 µM | HCC 2998 18.1 µM | NCI/ADR-RES 18 µM | MDA-MB-435 27.6 µM | MDA-MB-231 17.4 µM | CAKI-1 2.44 µM | SK-MEL-5 10.2 µM | M14 15.5 µM

CCC(=O)NCC1CCCN2CCCCC12 (stereo not given)
inactive: MDA-N > 100 µM | RXF 393 > 100 µM | MCF7 > 100 µM | UACC-257 > 100 µM | HCT-116 > 100 µM | SK-MEL-28 > 100 µM | ACHN > 100 µM | PC-3 > 100 µM | K562 > 100 µM | SK-MEL-2 > 100 µM | HCC 2998 > 100 µM | NCI/ADR-RES > 100 µM | MDA-MB-435 > 100 µM | MDA-MB-231 > 100 µM | CAKI-1 > 100 µM | SK-MEL-5 > 100 µM | A498 > 100 µM

COC(=O)C(Cc1ccccc1)OC(=O)C(N)CC(=O)O (stereo not given)
inactive: MDA-N > 100 µM | RXF 393 > 100 µM | MCF7 > 100 µM | SR > 100 µM | UACC-257 32.4 µM | HCT-116 > 100 µM | SK-MEL-28 > 100 µM | ACHN > 100 µM | PC-3 > 100 µM | K562 > 100 µM | SK-MEL-2 > 100 µM | HCC 2998 > 100 µM | NCI/ADR-RES > 100 µM | MDA-MB-435 17.1 µM | MDA-MB-231 > 100 µM | CAKI-1 > 100 µM | SK-MEL-5 > 100 µM | M14 > 100 µM

O=C1/C(=C/c2cccc([N+](=O)[O-])c2)N=C(c2ccccc2)N1c1ccc2c(c1)Sc1cc(N3C(=O)/C(=C/c4cccc([N+](=O)[O-])c4)N=C3c3ccccc3)ccc1N2
inactive: MDA-N 19.3 µM | RXF 393 21.6 µM | MCF7 19.2 µM | UACC-257 18.4 µM | HCT-116 42.8 µM | SK-MEL-28 47.9 µM | ACHN 30.9 µM | PC-3 22 µM | K562 27.3 µM | SK-MEL-2 20 µM | HCC 2998 > 100 µM | NCI/ADR-RES 34.1 µM | MDA-MB-435 18.7 µM | MDA-MB-231 29.1 µM | CAKI-1 22.4 µM | SK-MEL-5 17.3 µM | M14 32.9 µM | A498 23.6 µM

CC(=O)O[C@@]12[C@@H]3O[C@@]4(O)C[C@]5(C)[C@H]6C[C@@](C(C)C)(O[C@H]5c5ccoc5)O[C@H]1[C@]6(C4)O[C@]2(O)C(C)=CC3(C)C
inactive: MDA-N > 100 µM | RXF 393 > 100 µM | MCF7 > 100 µM | SR > 100 µM | UACC-257 > 100 µM | HCT-116 > 100 µM | SK-MEL-28 > 100 µM | ACHN > 100 µM | PC-3 > 100 µM | K562 > 100 µM | SK-MEL-2 > 100 µM | HCC 2998 > 100 µM | NCI/ADR-RES > 100 µM | MDA-MB-435 > 100 µM | MDA-MB-231 > 100 µM | CAKI-1 > 100 µM | SK-MEL-5 > 100 µM | M14 > 100 µM
